What was measured:
TTR tetramers = TTR tetramers (Homo sapiens, UniProt P02766); details: cited from earlier work
rhodopsin = test: Rhodopsin measured spectrophotometrically in retinal extracts of dark-adapted mice after 7 days oral dosing; type: in vivo; details: wild-type Balb/c mice, 25 mg/kg daily oral (chow), n=8
Experimental: FIG. 14. Effects of C20-D3-retinyl acetate on rhodopsin levels in ACPHS-52-treated Balb/c mice. Rhodopsin was measured spectrophotometrically in retinal extracts (n=8) from dark-adapted treated and control mice. Treated mice were given 7 daily oral dose of 25 mg/kg ACPHS-52 or the same dose of ACPHS-52 along with 3.3 mg/kg C20-D3-retinyl acetate. Untreated control mice were kept on standard diet.
ACPHS-52 was previously identified and described as a compound that exemplifies a novel class of bispecific ligands that act as both RBP4 antagonists and kinetic stabilizers of TTR tetramers (Cioffi, C. L. et al. 2020). Thus, ACPHS-52 was used as a representative “first component” of the present disclosure in order to assess the feasibility of the co-drug strategy. Accordingly, an experiment was conducted to determine whether partial reduction in functional rhodopsin (opsin with conjugated 11-cis-retinal) induced by oral ACPHS-52 in mice can be compensated by co-administration with C20-D3-retinyl acetate.
The experiment was conducted in Balb/c mice. Three groups of mice were used: control untreated mice; mice treated with ACPHS-52; and mice treated with the ACPHS-52 plus C20-D3-retinyl acetate combination. […] Rhodopsin was measured spectrophotometrically in retinal extracts (n=8) from dark-adapted treated and control mice using a previously published protocol (Racz, B. et al. 2018).

RBP4 [1] = details: in vivo; cited from earlier work
TTR = details: ATTR-CM patients with symptomatic, chronic heart failure, Phase III; cited from earlier work
[2] = tested on: lipofuscin bisretinoid synthesis; details: Abca4-/- mice; cited from earlier work
RBP4 [3] = details: non-human primates, oral administration; cited from earlier work
RBP4 [4] = molecular target: T1, RBP4 (Mus musculus, UniProt Q00724); details: rodents; cited from earlier work
T1 construct: circulating RBP4 plasma levels in rodents; host or cells: plasma/serum of rodents

[5] = Phase 2, dry AMD patients; cited from earlier work
[6] = long-term use, cancer patients; cited from earlier work
[7] = cited from earlier work
[8] = patients treated for TTR amyloidosis; cited from earlier work

Which results are given for `Cc1cc(C(=O)O)nc(N2CCC(COc3ccccc3C(F)(F)F)C2)n1` (stereo not shown) [ACPHS-52]?
effect on TTR tetramers (TTR tetramers): stabilization of TTR tetramers; reduction in rhodopsin in comparison to untreated mice (rhodopsin): 3 fold; effect on serum RBP4 (RBP4 [1]): pronounced reduction in serum RBP4

For `Cc1n[nH]c(C)c1CCCOc1cc(C(=O)O)ccc1F` [AG10], which “stabilization of TTR” value (TTR) is on record?
Its value is “near-complete stabilization of TTR”.

With `[2H]C([2H])([2H])C(/C=C/C=C(C)/C=C/C1=C(C)CCCC1(C)C)=C\COC(C)=O` [C20-D3-retinyl acetate] as the molecule, how does the “effect on retinal bisretinoid accumulation/synthesis” value [2] read?
The value was “effective in inhibiting bisretinoid synthesis”.

Which “effect on serum RBP4 levels” value (RBP4 [3]) does the source give for `Cc1cc(C(=O)O)nc(N2C[C@H]3CC(c4ccccc4C(F)(F)F)C[C@H]3C2)n1` (stereo partly shown) [Compound 8, BPN-14136] here?
The value was “robustly lowered serum RBP4 levels”.

And the “effect on retinal bisretinoid accumulation/synthesis” value [2]?
The value was “inhibited lipofuscin bisretinoid synthesis”.

With `O=C(O)c1ccccc1NC(=O)N1CCC(c2ccccc2C(F)(F)F)CC1` [Compound A1120, A1120] as the molecule, how does the “lowering of circulating RBP4 plasma levels” value (RBP4 [4]) read?
The value was > 70%.

And the “effect on retinal bisretinoid accumulation/synthesis” value [2]?
The value was “reduce retinal bisretinoid accumulation”.

With `CC1=C(/C=C/C(C)=C/C=C/C(C)=C/C(=O)Nc2ccc(O)cc2)C(C)(C)CCC1` [fenretinide] as the molecule, how does the “drug-treated patients with reversible reduction in dark adaptation” value [5] read?
The value was ~ 10%.

And the “yearly prevalence of transient and reversible ocular AEs such as diminished dark adaptation” value [6]?
Its value is 5.8-6.7%.

With `O=C(O)c1ccc2nc(-c3cc(Cl)cc(Cl)c3)oc2c1` [tafamidis] as the molecule, how does the “patients who do not respond” value [7] read?
The value was “Approximately 30%”.

Which ocular adverse effect [8] does the source give for patisiran here?
The ocular adverse effect was “symptoms of night blindness in a subset of patients”.

Reference: US20260256818A1, “NOVEL CO-DRUG, CO-ADMINISTRATION, AND SEQUENTIAL ADMINISTRATION OF BISPECIFIC RBP4/TTR LIGAND AND C20-D3-RETINOL FOR ELIMINATION OF MECHANISM-BASED OCULAR ADVERSE EFFECTS IN TREATING MACULAR DEGENERATION AND TTR AMYLOIDOSIS” (The Trustees of Columbia University in the City of New York, priority 2023, published 2026)
